Data: US11993596B2, “Fused tri-cyclic compound as PDE3/PDE4 dual inhibitor” (CHIA TAI TIANQING PHARMACEUTICAL GROUP CO., LTD., priority 2018, dated 2024)
Each block holds one compound with its values, some of them ahead of it.

Assays:
[1] = reported in literature; cited from earlier work
[2] = reported in literature; cited from earlier work; remark: listed apart in the source
[3] = test system: TNF-α in human peripheral blood mononuclear cells (hPBMCs); test: Inhibitory activity against TNF-α in human peripheral blood mononuclear cells; assay type: cell-based; conditions: PBMC, TNF-α in supernatant, 1 ng/mL LPS, 24 hours, read-out: hPBMC IC50
From the text: In Vitro Detection of the Inhibitory Activity of Compounds Against TNF-α in Human Peripheral Blood Mononuclear Cells
Experimental objective: to express the anti-inflammatory activity at the cellular level of the test compound based on the level of TNF-α in human peripheral blood mononuclear cells (hPBMCs).
Procedure: • 1. Normal human whole blood was collected into an EDTA anticoagulation tube; • 2. The PBMCs were separated by Ficoll density gradient centrifugation, and then counted. The cell concentration was adjusted to 2×10^6/mL; • 3. To each well of a U-bottomed 96-well plate were added 2×10^5 cells, 1 ng/mL LPS, and DMSO solutions of compound at concentrations of 100 μM, 10 μM, 1 μM, 100 nM, 10 nM, 1 nM, 100 pM and 10 pM, 200 μL per well; • 4. The mixture was incubated for 24 hours, and then the supernatant was collected; • 5. The level of TNF-α in supernatant was detected by ELIZA, Graphpad Prism software was used to fit inhibition curves and IC50 was calculated.

CYP1A2 = CYP1A2 (Homo sapiens (Human), UniProt P05177); test: biochemical; assay type: in vitro ADME
Sequence of CYP1A2 (P05177 whole entry): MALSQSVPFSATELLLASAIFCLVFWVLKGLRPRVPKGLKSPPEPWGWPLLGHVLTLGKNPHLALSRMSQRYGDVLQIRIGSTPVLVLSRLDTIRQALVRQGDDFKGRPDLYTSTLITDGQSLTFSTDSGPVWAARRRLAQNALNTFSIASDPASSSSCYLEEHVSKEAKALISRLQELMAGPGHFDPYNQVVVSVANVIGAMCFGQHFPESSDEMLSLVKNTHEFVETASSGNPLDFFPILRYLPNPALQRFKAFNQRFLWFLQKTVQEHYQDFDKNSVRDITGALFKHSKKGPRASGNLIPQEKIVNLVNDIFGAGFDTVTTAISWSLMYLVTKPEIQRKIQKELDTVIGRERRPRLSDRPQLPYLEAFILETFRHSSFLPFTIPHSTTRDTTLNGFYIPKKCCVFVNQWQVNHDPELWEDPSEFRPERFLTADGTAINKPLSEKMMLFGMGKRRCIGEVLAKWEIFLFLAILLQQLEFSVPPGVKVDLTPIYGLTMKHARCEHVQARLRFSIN
Method: (§1) Inhibitory Effect on the Activity of Isoenzymes (CYP1A2, CYP2C9, CYP2C19, CYP2D6 and CYP3A4) of Human Liver Microsomal Cytochrome P450
(§2) A total of 5 specific probe substrates of 5 isoenzymes of CYP, namely phenacetin (CYP1A2), diclofenac (CYP2C9), (S)-mephenytoin (CYP2C19), dextromethorphan (CYP2D6) and midazolam (CYP3A4) are each co-incubated with human liver microsomes and test compound, and then reduced nicotinamide adenine dinucleotide phosphate (NADPH) was added to initiate the reaction.

CYP2C9 = CYP2C9 (Homo sapiens (Human), UniProt P11712); test: Inhibition of human liver microsomal cytochrome P450 isoenzyme CYP2C9; assay type: in vitro ADME; conditions: human liver microsomes, probe substrate diclofenac
Sequence of CYP2C9 (P11712 whole entry): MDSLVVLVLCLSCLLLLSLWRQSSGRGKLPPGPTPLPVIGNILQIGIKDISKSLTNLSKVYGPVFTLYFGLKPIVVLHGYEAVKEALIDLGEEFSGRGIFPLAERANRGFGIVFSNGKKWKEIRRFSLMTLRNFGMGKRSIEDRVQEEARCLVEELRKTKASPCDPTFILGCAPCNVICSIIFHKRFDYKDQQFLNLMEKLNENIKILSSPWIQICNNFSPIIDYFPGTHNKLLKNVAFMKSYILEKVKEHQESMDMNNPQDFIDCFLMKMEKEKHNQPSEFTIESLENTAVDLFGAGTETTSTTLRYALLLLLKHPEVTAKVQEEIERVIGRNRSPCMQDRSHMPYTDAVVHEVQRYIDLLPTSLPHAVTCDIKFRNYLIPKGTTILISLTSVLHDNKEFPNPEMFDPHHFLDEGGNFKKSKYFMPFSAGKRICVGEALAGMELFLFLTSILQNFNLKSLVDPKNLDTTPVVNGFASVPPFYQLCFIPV
Method: as §1, §2

CYP2C19 = CYP2C19 (Homo sapiens (Human), UniProt P33261); test: Inhibition of human liver microsomal cytochrome P450 isoenzyme CYP2C19; assay type: in vitro ADME; conditions: human liver microsomes, probe substrate (S)-mephenytoin
Sequence of CYP2C19 (P33261 whole entry): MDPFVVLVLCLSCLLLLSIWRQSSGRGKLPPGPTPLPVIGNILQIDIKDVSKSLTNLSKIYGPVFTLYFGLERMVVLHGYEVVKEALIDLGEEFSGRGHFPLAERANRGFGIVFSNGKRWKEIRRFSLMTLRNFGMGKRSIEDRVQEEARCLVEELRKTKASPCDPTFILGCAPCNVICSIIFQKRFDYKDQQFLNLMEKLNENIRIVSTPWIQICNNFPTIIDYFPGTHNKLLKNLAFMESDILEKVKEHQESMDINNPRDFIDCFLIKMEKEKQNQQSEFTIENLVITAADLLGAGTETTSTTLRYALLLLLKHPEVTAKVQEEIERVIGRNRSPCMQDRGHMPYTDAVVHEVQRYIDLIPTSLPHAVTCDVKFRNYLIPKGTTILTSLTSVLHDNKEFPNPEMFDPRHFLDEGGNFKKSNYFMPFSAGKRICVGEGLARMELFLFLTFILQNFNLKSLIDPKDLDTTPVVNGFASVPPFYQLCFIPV
Method: as §1, §2

CYP3A4 = CYP3A4 (Homo sapiens (Human), UniProt P08684); test: Inhibition of human liver microsomal cytochrome P450 isoenzyme CYP3A4; assay type: in vitro ADME; conditions: human liver microsomes, probe substrate midazolam
Sequence of CYP3A4 (P08684 whole entry): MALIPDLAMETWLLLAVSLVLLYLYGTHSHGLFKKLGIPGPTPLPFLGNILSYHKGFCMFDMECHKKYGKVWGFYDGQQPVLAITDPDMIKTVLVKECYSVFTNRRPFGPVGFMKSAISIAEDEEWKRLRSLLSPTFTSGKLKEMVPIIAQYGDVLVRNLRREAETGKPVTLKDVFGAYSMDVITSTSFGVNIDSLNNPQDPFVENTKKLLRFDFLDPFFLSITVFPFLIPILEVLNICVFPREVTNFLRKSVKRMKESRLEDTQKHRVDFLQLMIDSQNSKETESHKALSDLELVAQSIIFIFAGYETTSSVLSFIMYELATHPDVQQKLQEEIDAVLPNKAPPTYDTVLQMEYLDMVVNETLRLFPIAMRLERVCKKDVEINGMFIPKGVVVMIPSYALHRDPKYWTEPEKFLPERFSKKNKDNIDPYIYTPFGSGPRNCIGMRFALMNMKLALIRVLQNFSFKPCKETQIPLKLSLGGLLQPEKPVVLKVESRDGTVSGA
Method: as §1, §2

CYP2D6 = CYP2D6 (Homo sapiens (Human), UniProt P10635); test: Inhibition of human liver microsomal cytochrome P450 isoenzyme CYP2D6; assay type: in vitro ADME; conditions: human liver microsomes, probe substrate dextromethorphan
Sequence of CYP2D6 (P10635 whole entry): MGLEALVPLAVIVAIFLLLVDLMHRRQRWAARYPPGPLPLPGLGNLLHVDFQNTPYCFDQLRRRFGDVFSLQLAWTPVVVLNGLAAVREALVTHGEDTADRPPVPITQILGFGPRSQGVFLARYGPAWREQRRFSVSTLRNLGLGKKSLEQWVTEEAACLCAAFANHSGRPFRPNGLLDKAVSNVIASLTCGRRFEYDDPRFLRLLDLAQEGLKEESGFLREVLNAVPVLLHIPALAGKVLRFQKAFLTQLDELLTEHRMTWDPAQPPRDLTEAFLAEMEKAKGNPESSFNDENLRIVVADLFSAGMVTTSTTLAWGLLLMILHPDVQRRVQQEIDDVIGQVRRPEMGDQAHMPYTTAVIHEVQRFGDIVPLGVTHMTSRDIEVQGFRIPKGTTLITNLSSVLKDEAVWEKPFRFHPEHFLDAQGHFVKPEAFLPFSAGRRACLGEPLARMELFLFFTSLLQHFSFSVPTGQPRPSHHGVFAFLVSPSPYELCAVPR
Method: as §1, §2

[4] = Pharmacokinetic experiment in beagle dogs; assay type: in vivo; conditions: male, dog, plasma
Method: Pharmacokinetic Experiment in Beagle Dogs
In this study, male beagle dogs were selected as test animals, and liquid chromatography-tandem mass spectrometry (LC-MS/MS) method was used for quantitatively measuring the drug concentration in plasma of beagle dogs at different time points after intravenous injection or oral administration of compound WX036 so as to evaluate the pharmacokinetic characteristics of the compound WX036 in beagle dogs.
The clear solution of compound WX036 was injected into two 10-12 kg beagle dogs via the cephalic vein or saphenous vein, and the clear solution of test compound was administered intragastrically to two 10-12 kg beagle dogs (overnight fasted). The animals were all subjected to approximately 500 μL of blood collection each time from peripheral veins at 0.0333, 0.0833, 0.25, 0.5, 1, 2, 4, 6, 8, and 24 hours post-dose, and the blood was transferred into commercial centrifuge tubes containing 0.85-1.15 mg of K2 EDTA*2H2O anticoagulant, and plasma was taken by centrifugation at 3000 g for 10 minutes at 4° C. The plasma concentration was measured by LC-MS/MS method, and the relevant pharmacokinetic parameters were calculated by WinNonlin™ Version 6.3 (Pharsight, Mountain View, CA) pharmacokinetic software using non-compartmental model linear logarithmic trapezoid method.

[5] = intravenous injection 0.5 mg/kg

Compound: COc1cc2c(cc1OC)-c1c/c(=N\c3c(C)cc(C)cc3C)n(CCNC(N)=O)c(=O)n1CC2 [RPL554]
plasma clearance [1]: high
solubility [2]: poor

Compound: COc1cc2c(cc1OC)-c1cc(Oc3c(C(C)C)cccc3C(C)C)nc(=O)n1CC2 [RPL565]
plasma clearance [1]: high
solubility [2]: poor

Compound: CCOc1cc2c(cc1OC)-c1c/c(=N\c3c(C)cc(C)cc3C)n(CCNC(=O)c3ccn[nH]3)c(=O)n1CC2 [WX018]
IC50 [3]: 0.09 nM

Compound: CCOc1cc2c(cc1OC)-c1c/c(=N\c3c(C)cc(C)cc3C)n(CCNC(=O)c3[nH]nnc3OC)c(=O)n1CC2 [WX026]
IC50 (CYP1A2): 50 µM
IC50 (CYP2C9): 20 µM
IC50 (CYP2C19): 50 µM
IC50 (CYP3A4): 16 µM
IC50 (CYP2D6): 50 µM

Compound: CCOc1cc2c(cc1OC)-c1c/c(=N\c3c(C)cc(C)cc3C)n(CCNC(=O)c3c(O)nnn3C)c(=O)n1CC2 [WX036]
clearance [4, 5]: 70.3 mL/min/kg
half-life [4, 5]: 18 min
bioavailability ([4]; oral administration 3 mg/kg): 7.5%
IC50 (CYP1A2): 50 µM
IC50 (CYP2C19): 50 µM
IC50 (CYP3A4): 50 µM
IC50 (CYP2D6): 50 µM

Compound: CCOc1cc2c(cc1OC)-c1c/c(=N\c3c(C)cc(C)cc3C)n(CCC(=O)Nc3nnc[nH]3)c(=O)n1CC2 [WX054]
IC50 [3]: 1.8 nM

Other lines, results leading:

IC50 [3]: 3.1 nM
Compound: CCOc1cc2c(cc1OC)-c1c/c(=N\c3c(C)cc(C)cc3C)n(CCNc3nc[nH]n3)c(=O)n1CC2 [WX003]

IC50 [3]: 0.33 nM
Compound: CCOc1cc2c(cc1OC)-c1c/c(=N\c3c(C)cc(C)cc3C)n(CCNc3nc[nH]n3)c(=O)n1CCC2 [WX004]

IC50 [3]: 0.36 nM
Compound: CCOc1cc2c(cc1OC)-c1c/c(=N\c3c(C)cc(C)cc3C)n(CCNC(=O)c3nnc[nH]3)c(=O)n1CC2 [WX015]

IC50 [3]: 2.8 nM
Compound: CCOc1cc2c(cc1OC)-c1c/c(=N\c3c(C)cc(C)cc3C)n(CCNC(=O)c3cnn[nH]3)c(=O)n1CC2 [WX016]

IC50 [3]: 0.25 nM
Compound: CCOc1cc2c(cc1OC)-c1c/c(=N\c3c(C)cc(C)cc3C)n(CCNC(=O)c3nnc[nH]3)c(=O)n1CCC2 [WX047]
